Read-outs that look alike come from different tables or passages of the source. Blank lines part the entries; values can stand above or below the molecule they belong to.
Legend:
PfcProRS = target: T1, PfcProRS (Plasmodium falciparum, UniProt Q8I5R7); assay: biochemical; type: binding
T1 construct: made in house; host or cells: SoluBL-21 E. coli

HsProRS = target: T2, HsProRS (Homo sapiens, UniProt P07814); assay: TR-FRET ProRS ligand displacement / saturation binding assay, HsProRS
T2 construct: made in house; host or cells: SoluBL-21 E. coli
T2 sequence (P07814 996-1512): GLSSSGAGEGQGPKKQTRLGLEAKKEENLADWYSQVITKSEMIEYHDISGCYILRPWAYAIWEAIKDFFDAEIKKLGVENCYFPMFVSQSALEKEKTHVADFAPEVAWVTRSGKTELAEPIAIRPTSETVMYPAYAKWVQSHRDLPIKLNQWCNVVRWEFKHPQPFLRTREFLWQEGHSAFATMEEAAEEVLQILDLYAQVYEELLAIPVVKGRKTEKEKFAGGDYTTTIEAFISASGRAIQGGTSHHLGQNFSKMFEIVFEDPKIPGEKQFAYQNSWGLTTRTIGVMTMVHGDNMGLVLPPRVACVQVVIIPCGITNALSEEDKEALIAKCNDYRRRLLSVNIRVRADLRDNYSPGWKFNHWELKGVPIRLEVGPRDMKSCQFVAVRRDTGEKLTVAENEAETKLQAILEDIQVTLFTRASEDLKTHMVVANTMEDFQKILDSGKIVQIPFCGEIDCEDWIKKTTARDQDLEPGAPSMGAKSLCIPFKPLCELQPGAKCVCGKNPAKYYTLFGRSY

BRD4 in MCF7 cells = target: T3, BRD4 in MCF7 cells (Homo sapiens, UniProt O60885); assay: TR-FRET BRD4 quantification after degrader treatment, MCF7 cells; type: cell-based; conditions: for rescue of CS-JQ1-mediated BRD4 degradation: 250 nM CS-JQ1, 1 μM rescue compound or 10 μM JQ1; for rescue of dBET6-induced BRD4 degradation: 250 nM dBET6, 1 μM rescue compound or 10 μM JQ1, 5 h
T3 construct: TR-FRET-based quantification of BRD4 levels in unmodified cell lines after degrader treatment; endogenous in cells; host or cells: MCF7

BRD4 in MDA-MB-231 cells = target: T4, BRD4 in MDA-MB-231 cells (Homo sapiens, UniProt O60885); assay: TR-FRET BRD4 quantification after degrader treatment, MDA-MB-231 cells; type: cell-based; conditions: for rescue of CS-JQ1-mediated BRD4 degradation: 250 nM CS-JQ1, 1 μM rescue compound or 10 μM JQ1; for rescue of dBET6-induced BRD4 degradation: 250 nM dBET6, 1 μM rescue compound or 10 μM JQ1, 5 h
T4 construct: TR-FRET-based quantification of BRD4 levels in unmodified cell lines after degrader treatment; endogenous in cells; host or cells: MDA-MB-231

Keap1 (His/GST) [1] = target: T5, Keap1 (His/GST) (Homo sapiens, UniProt Q14145); assay: Keap1 TR-FRET Assay 3 (CDDO-FITC/Tb-Anti-6xHis); type: binding
T5 sequence (Q14145 whole entry): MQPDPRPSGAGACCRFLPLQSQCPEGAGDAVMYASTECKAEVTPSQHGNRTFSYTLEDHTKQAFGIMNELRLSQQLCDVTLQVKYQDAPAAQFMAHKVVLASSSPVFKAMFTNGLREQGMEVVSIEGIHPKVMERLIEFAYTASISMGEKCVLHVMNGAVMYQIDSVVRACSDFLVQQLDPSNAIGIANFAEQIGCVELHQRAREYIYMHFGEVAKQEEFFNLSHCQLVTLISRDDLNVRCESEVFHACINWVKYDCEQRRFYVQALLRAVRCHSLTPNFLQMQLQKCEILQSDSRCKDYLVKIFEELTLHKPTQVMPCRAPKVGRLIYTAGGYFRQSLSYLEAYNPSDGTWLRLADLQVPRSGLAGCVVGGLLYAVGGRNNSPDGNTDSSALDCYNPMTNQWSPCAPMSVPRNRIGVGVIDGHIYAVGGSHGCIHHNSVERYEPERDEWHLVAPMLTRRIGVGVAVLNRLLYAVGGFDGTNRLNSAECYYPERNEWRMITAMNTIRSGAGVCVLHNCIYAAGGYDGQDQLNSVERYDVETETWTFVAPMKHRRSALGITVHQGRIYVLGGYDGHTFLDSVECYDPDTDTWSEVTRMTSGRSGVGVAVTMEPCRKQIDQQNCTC

Keap1 (His/GST) [2] = target: T5, Keap1 (His/GST); assay: biochemical
P. falciparum Dd2-2D4 = assay: P. falciparum asexual blood stage growth assay, wild type; conditions: read-out: Dd2 (EC50 [nM]) wt
[3] = dose-titration of tracer on HT-HsProRS, read-out: HsProRS KD of tracers
[4] = PfcProRS KD, substrate condition not given
[5] = substrate condition not given, read-out: HsProRS KD

T1 sequence (Q8I5R7 249-746): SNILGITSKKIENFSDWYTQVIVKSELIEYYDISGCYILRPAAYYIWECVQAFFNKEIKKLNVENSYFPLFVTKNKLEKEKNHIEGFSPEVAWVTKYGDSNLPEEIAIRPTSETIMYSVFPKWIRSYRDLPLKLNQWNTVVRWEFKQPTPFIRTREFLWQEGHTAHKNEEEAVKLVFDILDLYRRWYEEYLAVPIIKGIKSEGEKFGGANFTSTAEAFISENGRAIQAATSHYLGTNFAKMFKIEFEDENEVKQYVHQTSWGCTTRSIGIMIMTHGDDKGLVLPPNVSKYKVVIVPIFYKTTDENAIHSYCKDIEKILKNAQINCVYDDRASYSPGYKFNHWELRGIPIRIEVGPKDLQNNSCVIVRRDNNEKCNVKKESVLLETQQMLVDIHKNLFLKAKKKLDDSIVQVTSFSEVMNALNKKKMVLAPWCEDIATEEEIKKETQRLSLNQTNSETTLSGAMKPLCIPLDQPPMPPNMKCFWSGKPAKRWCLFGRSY

Compound: O=C(CCCCCNC(=S)Nc1ccc(-c2c3ccc(=O)cc-3oc3cc(O)ccc23)c(C(=O)O)c1)NCCCCCC(=O)NC1CCN(C(=O)Nc2nccnc2C(=O)NC2Cc3ccccc3C2)CC1 [MAT422]
Kd (PfcProRS; KD, PfcProRS of alternative tracer, tracer binding, conditions not stated): 1280 nM
Kd (HsProRS; [3]): > 4000 nM

Compound: O=C(CCCCCNC(=S)Nc1ccc(C(=O)O)c(-c2c3ccc(=O)cc-3oc3cc(O)ccc23)c1)NCC1CCN(C(=O)Nc2nccnc2C(=O)NC2Cc3ccccc3C2)CC1 [MAT425, 4-(3-(6-(((1-((3-((2,3-dihydro-1H-inden-2-yl)carbamoyl)pyrazin-2-yl)carbamoyl)piperidin-4-yl)methyl)amino)-6-oxohexyl)thioureido)-2-(6-hydroxy-3-oxo-3H-xanthen-9-yl)benzoic acid]
Kd (PfcProRS; PfcProRS (KD [nM]) −, absence of substrates): 199 nM
Kd (HsProRS; [3]): > 10000 nM
fold less tightly bound to HT-HsProRS relative to HT-PfcProRS (HsProRS; tracer KD ratio): > 50 fold

Compound: NCCOCCOCCCCCCN(C[C@H]1O[C@@H](n2cnc3c(N)ncnc32)[C@H](O)[C@@H]1O)S(=O)(=O)NC(=O)[C@@H]1CCCN1 [MAT556, (S)-N-(N-(((2R,3S,4R,5R)-5-(6-amino-9H-purin-9-yl)-3,4-dihydroxytetrahydrofuran-2-yl)methyl)-N-(6-(2-(2-aminoethoxy)ethoxy)hexyl)sulfamoyl)pyrrolidine-2-carboxamide]
Kd (PfcProRS; [4]): 195 nM
Kd (HsProRS; [5]): 33.7 nM

rescue of CS-JQ1-mediated BRD4 degradation (BRD4 in MCF7 cells): substantially rescued
rescue of dBET6-induced BRD4 degradation (BRD4 in MCF7 cells): attenuated
rescue of CS-JQ1-mediated BRD4 degradation (BRD4 in MDA-MB-231 cells): substantially rescued
rescue of dBET6-induced BRD4 degradation (BRD4 in MDA-MB-231 cells): attenuated
Compound: NS(=O)(=O)OC[C@@H]1C[C@@H](n2ccc3c(N[C@H]4CCc5ccccc54)ncnc32)C[C@@H]1O [MLN4924]

rescue of CS-JQ1-mediated BRD4 degradation (BRD4 in MCF7 cells): substantially rescued
rescue of dBET6-induced BRD4 degradation (BRD4 in MCF7 cells): attenuated
rescue of CS-JQ1-mediated BRD4 degradation (BRD4 in MDA-MB-231 cells): substantially rescued
rescue of dBET6-induced BRD4 degradation (BRD4 in MDA-MB-231 cells): attenuated
Compound: NS(=O)(=O)OC[C@H]1C[C@@H](Nc2ccnc3cc(-c4cccc(SC(F)(F)F)c4)nn23)[C@H](O)[C@@H]1O [MLN7243]

IC50 (Keap1 (His/GST) [1]): 3390 nM
IC50 (Keap1 (His/GST) [2]): 24600 nM
Compound: COC1=CC(=O)C(O)=C/C1=C\C=C\c1ccccc1 [OBT, obtusaquinone]

Compound: Nc1ncnc2c1ncn2[C@@H]1O[C@H](COS(=O)(=O)NC(=O)[C@@H]2CCCN2)[C@@H](O)[C@H]1O [ProSA, prolyl-sulfamoyl adenosine, reference compound]
EC50 (P. falciparum Dd2-2D4; wild-type Dd2-2D4, 72 h growth): 151 nM

Compound: Nc1ncnc2c1ncn2[C@@H]1O[C@H](CNS(=O)(=O)NC(=O)[C@@H]2CCCN2)[C@@H](O)[C@H]1O [ProSNA, (S)-N-(N-(((2R,3S,4R,5R)-5-(6-amino-9H-purin-9-yl)-3,4-dihydroxytetrahydrofuran-2-yl)methyl)sulfamoyl)pyrrolidine-2-carboxamide]
Kd (PfcProRS; [4]): < 1 nM
Kd (HsProRS; [5]): < 1 nM
EC50 (P. falciparum Dd2-2D4; Plasmodium falciparum, DD2, 72 h): 172 nM

rescue of CS-JQ1-mediated BRD4 degradation (BRD4 in MCF7 cells): substantially rescued
rescue of dBET6-induced BRD4 degradation (BRD4 in MCF7 cells): attenuated
rescue of CS-JQ1-mediated BRD4 degradation (BRD4 in MDA-MB-231 cells): substantially rescued
rescue of dBET6-induced BRD4 degradation (BRD4 in MDA-MB-231 cells): attenuated
Compound: CC(C)C[C@H](NC(=O)[C@H](Cc1ccccc1)NC(=O)c1cnccn1)B(O)O [bortezomib]

Compound: O=C(CC1NCCCC1O)Cn1cnc2cc(Br)c(Cl)cc2c1=O (stereo not shown) [halofuginone, reference compound]
fold increased affinity in the presence of ATP (PfcProRS; 500 μM ATP vs 0 μM ATP): > 6,000 fold

Compound: O=C(O)[C@@H]1CCCN1 [proline]
Kd (PfcProRS; dose-titration of ATP and proline against tracer MAT379, read-out: PfcProRS KD of substrates): 457000 nM
Kd (HsProRS; read-out: HsProRS KD of proline, competition with MAT379): 67100 nM

Source: patent US20250093263A1, “FRET-BASED ASSAYS” (The General Hospital Corporation, priority 2021, published 2025)
